US20070054927A1, “Fungicidal mixtures” (BASF AKTIENGESELLSCHAFT, priority 2003, published 2007)

Tested on: Plasmopara viticola
Experiment: activity against peronospora of grapevines caused by Plasmopara viticola, protective application
Format: in vivo
Settings: individual active compound, potted vines Müller-Thurgau, untreated control 71% infection
Protocol: The active compounds, separately or jointly, were prepared as a stock solution comprising 0.25% by weight of active compound in acetone or DMSO. 1% by weight of the emulsifier Uniperol® EL (wetting agent having emulsifying and dispersant action based on ethoxylated alkylphenols) was added to this solution, and the mixture was diluted with water to the desired concentration.
Use example—activity against peronospora of gravevines caused by Plasmopara viticola, protective application
Leaves of potted vines of the cultivar “Müller-Thurgau” were sprayed to runoff point with an aqueous suspension having the concentration of active compound stated below. The next day, the undersides of the leaves were inoculated with an aqueous zoospore suspension of Plasmopara viticola. The grapevines were then initially placed in a water-vapor-saturated chamber at 24° C. for 48 hours and then in a greenhouse at 20-30° C. for 5 days. After this period of time, the plants were again placed in a humid chamber for 16 hours to promote sporangiophore eruption. The extent of the development of the disease on the undersides of the leaves was then determined visually.
The visually determined percentages of infected leaf areas were converted into efficacies in % of the untreated control:
The efficacy (E) is calculated as follows using Abbot's formula: E=(1−α/β)·100 • α corresponds to the fungicidal infection of the treated plants in % and • β corresponds to the fungicidal infection of the untreated (control) plants in %
An efficacy of 0 means that the infection level of the treated plants corresponds to that of the untreated control plants; an efficacy of 100 means that the treated plants were not infected.
The expected efficacies of mixtures of active compounds were determined using Colby's formula (Colby, S. R. “Calculating synergistic and antagonistic responses of herbicide combinations”, Weeds, 15, 20-22, 1967) and compared with the observed efficacies.
Colby's formula: E=x+y−x·y/100 • E expected efficacy, expressed in % of the untreated control, when using the mixture of the active compounds A and B at the concentrations a and b • x efficacy, expressed in % of the untreated control, when using the active compound A at the concentration a • y efficacy, expressed in % of the untreated control, when using the active compound B at the concentration b

CC1CCN(c2c(-c3c(F)cccc3Cl)c(Cl)nc3ncnn23)CC1 [comparative compound A]
Efficacy in % of the untreated control (4 ppm in the spray liquor): 0%
Efficacy in % of the untreated control (16 ppm in the spray liquor): 15%

C[C@H](Nc1c(-c2c(F)cc(F)cc2F)c(Cl)nc2ncnn12)C(F)(F)F [comparative compound B]
Efficacy in % of the untreated control (4 ppm in the spray liquor): 15%
Efficacy in % of the untreated control (16 ppm in the spray liquor): 29%

CC1CCN(c2c(-c3c(F)cc(F)cc3F)c(Cl)nc3ncnn23)CC1 [I, 5-chloro-7-(4-methylpiperidin-1-yl)-6-(2,4,6-trifluorophenyl)-[1,2,4]triazolo[1,5-a]pyrimidine]
Efficacy in % of the untreated control (4 ppm in the spray liquor): 1%
Efficacy in % of the untreated control (16 ppm in the spray liquor): 44%

CC1(C)CCC(Cc2ccc(Cl)cc2)C1(O)Cn1cncn1 (centres unmarked) [II (metconazole), 5-(4-chlorobenzyl)-2,2-dimethyl-1-[1,2,4]triazol-1-ylmethylcyclopentanol]
Efficacy in % of the untreated control (4 ppm in the spray liquor): 1%
Efficacy in % of the untreated control (16 ppm in the spray liquor): 1%
